One experiment addresses human Gal-3 (hGal-3) (Homo sapiens (Human), UniProt P17931). The experiment in a line: Competitive binding assay: biotinylated hGal-3 binding to microplate-adsorbed asialofetuin (ASF). Particulars: Activity on hGal-3; binding of biotinylated hGal-3 to ASF-coated plates; mean values. The procedure, abridged: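 Serially diluted compounds competed with biotinylated human Gal-3 for binding to plate-adsorbed asialofetuin over 3 h at 4 °C. Bound Gal-3 was detected with streptavidin-peroxidase (80 ng/mL, 1 h, 4 °C) and ABTS substrate. IC50 values are means of several measurements.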

The target of experiment [1] is human Gal-1 (hGal-1) (Homo sapiens, UniProt P09382). The experiment in a line: Competitive binding assay: biotinylated hGal-1 binding to microplate-adsorbed asialofetuin (ASF). Particulars: Activity on hGal-1; binding of biotinylated hGal-1 to ASF-coated plates; mean values. The procedure, abridged: (§1)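 Inhibition measured as loss of hGal-1 (biotinylated, 300–1000 ng/mL, wild type or Cys→Ser mutant) binding to adsorbed asialofetuin over 3 h at 4 °C. Bound lectin detected with streptavidin-HRP and ABTS (410 nm, 30–45 min); IC50 values averaged across repeat measurements.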
Chain of human Gal-1 (hGal-1) (Homo sapiens, UniProt P09382) (P09382 2-135 limits assumed): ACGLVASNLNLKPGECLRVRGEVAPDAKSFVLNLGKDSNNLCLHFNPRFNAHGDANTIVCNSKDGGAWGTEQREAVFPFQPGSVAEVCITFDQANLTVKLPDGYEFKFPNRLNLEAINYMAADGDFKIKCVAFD

Experiment [2] has as its target human Gal-1 (hGal-1). The description is as above. The settings on record: Activity on hGal-1; binding of biotinylated hGal-1 to ASF-coated plates; mean values. The procedure, abridged:
as §1

Chain of human Gal-1 (hGal-1) (P09382 2-135 limits assumed): as above
Chain of human Gal-3 (hGal-3) (P17931 whole entry): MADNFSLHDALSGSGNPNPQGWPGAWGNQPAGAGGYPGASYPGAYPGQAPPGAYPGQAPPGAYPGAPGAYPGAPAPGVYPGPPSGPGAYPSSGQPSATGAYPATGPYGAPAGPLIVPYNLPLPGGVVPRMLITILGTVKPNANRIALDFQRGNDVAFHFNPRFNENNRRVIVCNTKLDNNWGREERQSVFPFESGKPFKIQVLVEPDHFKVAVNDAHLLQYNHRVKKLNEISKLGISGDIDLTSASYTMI

In the case of `CO[C@@H]1[C@@H](n2cc(-c3cc(F)c(C)c(F)c3)nn2)[C@@H](O)[C@@H](CO)O[C@H]1C(=O)N(c1cc(F)cc(Br)c1)[C@H]1CCCC[C@@H]1O` [Example 160, (2R,3R,4S,5R,6R)-N-(3-bromo-5-fluorophenyl)-4-(4-(3,5-difluoro-4-methylphenyl)-1H-1,2,3-triazol-1-yl)-5-hydroxy-N-((1S,2S)-2-hydroxycyclohexyl)-6-(hydroxymethyl)-3-methoxytetrahydro-2H-pyran-2-carboxamide], the values for the IC50 on human Gal-3 (hGal-3) and on human Gal-1 (hGal-1) [1] were 0.011 µM and 1.77 µM, respectively.

Regarding `CO[C@@H]1[C@@H](n2cc(-c3cc(F)c(F)c(F)c3)nn2)[C@@H](O)[C@@H](CO)O[C@H]1C(=O)N(c1cc(C)n(C)n1)[C@H]1CCCC[C@@H]1O` [Example 199, (2R,3R,4S,5R,6R)-N-(1,5-dimethyl-1H-pyrazol-3-yl)-5-hydroxy-N-((1S,2S)-2-hydroxycyclohexyl)-6-(hydroxymethyl)-3-methoxy-4-(4-(3,4,5-trifluorophenyl)-1H-1,2,3-triazol-1-yl)tetrahydro-2H-pyran-2-carboxamide], the IC50 is 0.321 µM on human Gal-3 (hGal-3) and 18 µM on human Gal-1 (hGal-1) [2].

Regarding `CO[C@@H]1[C@@H](n2cc(-c3ccc(C)c(F)c3)nn2)[C@@H](O)[C@@H](CO)O[C@H]1C(=O)N(c1cc(Br)cc(C#N)c1)[C@H]1CCCC[C@@H]1O` [Example 200, (2R,3R,4S,5R,6R)-N-(3-bromo-5-cyanophenyl)-4-(4-(3-fluoro-4-methylphenyl)-1H-1,2,3-triazol-1-yl)-5-hydroxy-N-((1S,2S)-2-hydroxycyclohexyl)-6-(hydroxymethyl)-3-methoxytetrahydro-2H-pyran-2-carboxamide], the IC50 worked out at 0.008 µM on human Gal-3 (hGal-3) and 0.158 µM at human Gal-1 (hGal-1) [2].

Take `CO[C@@H]1[C@@H](n2cc(-c3ccc(Cl)cc3)nn2)[C@@H](O)[C@@H](CO)O[C@H]1C(=O)N(c1cc(Cl)cc(C#N)c1)[C@H]1CCCC[C@@H]1O` [Example 201, (2R,3R,4S,5R,6R)-N-(3-chloro-5-cyanophenyl)-4-(4-(4-chlorophenyl)-1H-1,2,3-triazol-1-yl)-5-hydroxy-N-((1S,2S)-2-hydroxycyclohexyl)-6-(hydroxymethyl)-3-methoxytetrahydro-2H-pyran-2-carboxamide]: the figures for the IC50 at human Gal-3 (hGal-3) and on human Gal-1 (hGal-1) [2] were 0.02 µM and 0.242 µM, respectively.

As to `CO[C@@H]1[C@@H](n2cc(-c3ccc(Br)cc3)nn2)[C@@H](O)[C@@H](CO)O[C@H]1C(=O)N(c1cc(Cl)cc(C#N)c1)[C@H]1CCCC[C@@H]1O` [Example 202, (2R,3R,4S,5R,6R)-4-(4-(4-bromophenyl)-1H-1,2,3-triazol-1-yl)-N-(3-chloro-5-cyanophenyl)-5-hydroxy-N-((1S,2S)-2-hydroxycyclohexyl)-6-(hydroxymethyl)-3-methoxytetrahydro-2H-pyran-2-carboxamide], the IC50 on human Gal-3 (hGal-3) was 0.021 µM; at human Gal-1 (hGal-1) [2], 0.341 µM.

In the case of `CO[C@@H]1[C@@H](n2cc(-c3cc(F)c(N4CCOCC4)c(F)c3)nn2)[C@@H](O)[C@@H](CO)O[C@H]1C(=O)N(c1cc(Cl)cc(Cl)c1)[C@H]1CCCC[C@@H]1O` [Example 203], the results for the IC50 on human Gal-3 (hGal-3) and at human Gal-1 (hGal-1) [2] were 0.024 µM and 0.678 µM, respectively.

Regarding `CO[C@@H]1[C@@H](n2cc(-c3cc(F)c(NCCCO)c(F)c3)nn2)[C@@H](O)[C@@H](CO)O[C@H]1C(=O)N(c1cc(Cl)cc(Cl)c1)[C@H]1CCCC[C@@H]1O` [Example 204, (2R,3R,4S,5R,6R)—N-(3,5-dichlorophenyl)-4-(4-(3,5-difluoro-4-((3-hydroxypropyl)amino)phenyl)-1H-1,2,3-triazol-1-yl)-5-hydroxy-N-((1S,2S)-2-hydroxycyclohexyl)-6-(hydroxymethyl)-3-methoxytetrahydro-2H-pyran-2-carboxamide], the figures for the IC50 at human Gal-3 (hGal-3) and on human Gal-1 (hGal-1) [2] were 0.021 µM and 0.273 µM, respectively.

As to `COc1cc(C#N)cc(N(C(=O)[C@@H]2O[C@H](CO)[C@H](O)[C@H](n3cc(-c4ccc(C#N)c(F)c4)nn3)[C@H]2OC)[C@H]2CCCC[C@@H]2O)c1` [Example 205, (2R,3R,4S,5R,6R)-4-(4-(4-cyano-3-fluorophenyl)-1H-1,2,3-triazol-1-yl)-N-(3-cyano-5-methoxyphenyl)-5-hydroxy-N-((1S,2S)-2-hydroxycyclohexyl)-6-(hydroxymethyl)-3-methoxytetrahydro-2H-pyran-2-carboxamide], the IC50 was determined as 0.087 µM at human Gal-3 (hGal-3) and 1.82 µM on human Gal-1 (hGal-1) [2].

As for `CO[C@@H]1[C@@H](n2cc(-c3ccc(C#N)c(F)c3)nn2)[C@@H](O)[C@@H](CO)O[C@H]1C(=O)N(c1cc(C)cc(C#N)c1)[C@H]1CCCC[C@@H]1O` [Example 206, (2R,3R,4S,5R,6R)-4-(4-(4-cyano-3-fluorophenyl)-1H-1,2,3-triazol-1-yl)-N-(3-cyano-5-methylphenyl)-5-hydroxy-N-((1S,2S)-2-hydroxycyclohexyl)-6-(hydroxymethyl)-3-methoxytetrahydro-2H-pyran-2-carboxamide], the IC50 at human Gal-3 (hGal-3) was 0.126 µM; at human Gal-1 (hGal-1) [2], 1.34 µM.

Regarding `CO[C@@H]1[C@@H](n2cc(-c3cc(F)c(F)c(F)c3)nn2)[C@@H](O)[C@@H](CO)O[C@H]1C(=O)N(c1cccc(Cl)c1)[C@H]1CCCCC[C@@H]1O` [Example 207, (2R,3R,4S,5R,6R)-N-(3-chlorophenyl)-5-hydroxy-N-((1S,2S)-2-hydroxycycloheptyl)-6-(hydroxymethyl)-3-methoxy-4-(4-(3,4,5-trifluorophenyl)-1H-1,2,3-triazol-1-yl)tetrahydro-2H-pyran-2-carboxamide], the IC50 at human Gal-3 (hGal-3) amounted to 0.049 µM; at human Gal-1 (hGal-1) [2], 1.79 µM.

`CO[C@@H]1[C@@H](n2cc(-c3cc(F)c(F)c(F)c3)nn2)[C@@H](O)[C@@H](CO)O[C@H]1C(=O)N(c1cc(Cl)cc(Cl)c1)[C@H]1CCCCC[C@@H]1O` [Example 208, (2R,3R,4S,5R,6R)-N-(3,5-dichlorophenyl)-5-hydroxy-N-((1S,2S)-2-hydroxycycloheptyl)-6-(hydroxymethyl)-3-methoxy-4-(4-(3,4,5-trifluorophenyl)-1H-1,2,3-triazol-1-yl)tetrahydro-2H-pyran-2-carboxamide]: the IC50 was found to be 0.062 µM on human Gal-3 (hGal-3) and 0.586 µM on human Gal-1 (hGal-1) [2].

“(2R,3R,5R,6R)—N-(3,5-dichlorophenyl)-5-hydroxy-N-(1S,2S)-2-hydroxycyclohexyl-3-(2-hydroxyethoxy)-6-(hydroxymethyl)-4-(4-(3,4,5-trifluorophenyl)-1H-1,2,3-triazol-1-yl)tetrahydro-2H-pyran-2-carboxamide [Example 196]”: the IC50 on human Gal-3 (hGal-3) was found to be 0.021 µM; at human Gal-1 (hGal-1) [1], 0.161 µM.

The IC50 is the concentration needed to halve the response being measured.

These data come from patent US12291519B2, “2-hydroxycycloalkane-1-carbamoyl” (Idorsia Pharmaceuticals Ltd, priority 2019, dated 2025).
